Activity calls are given as the source filed them. The calls are words filed in the database; no cut-off is given here.
Assays:
THP-1 [1] = test: Antiinflammatory activity in differentiated human THP1 cells assessed as inhibition of LPS-induced IkappaB degradation at 2 uM pretreated for 1 hr measured after 30 mins of LPS stimulation by Western blot analysis; assay type: functional, cell-based
THP-1 [2] = test: Cytotoxicity against human THP1 cells assessed as cell viability after 24 hrs by WST assay; assay type: cell-based; details: THP-1, 24 h
THP-1 [3] = test: Cytotoxicity against human THP1 cells at 2 uM after 24 hrs by WST assay; assay type: cell-based; details: thp-1, 24 h
THP-1 [4] = test: Antiinflammatory activity in differentiated human THP1 cells assessed as inhibition of LPS-induced NFkappaB activation at 2 uM pretreated for 1 hr measured after 4 hrs of LPS stimulation by DAPI-staining based immunohistochemical analysis; assay type: functional, cell-based
THP-1 [5] = test: Antiinflammatory activity in differentiated human THP1 cells assessed as inhibition of LPS-induced ROS level at 2 uM pretreated for 1 hr measured after 24 hrs of LPS stimulation by fluorescence assay; assay type: functional, cell-based
THP-1 [6] = test: Antiinflammatory activity in differentiated human THP1 cells assessed as inhibition of LPS-induced TNFalpha mRNA expression at 2 uM after 4 hrs by RT-qPCR analysis; assay type: functional, cell-based
THP-1 [7] = test: Antiinflammatory activity in differentiated human THP1 cells assessed as inhibition of LPS-induced TNFalpha secretion at 2 uM after 24 hrs by ELISA; assay type: functional, cell-based
THP-1 [8] = test: Cytotoxicity against human THP1 cells assessed as increase in ROS level at 2 uM; assay type: cell-based; details: thp-1, 2 µM

SMILES	Activity (THP-1 [1])	IC50 (THP-1 [2]) [µM]	Activity (THP-1 [3])	Activity (THP-1 [4])	Activity (THP-1 [5])	Activity (THP-1 [6])	Activity (THP-1 [7])	Activity (THP-1 [8])
CC(C)=CCC/C(C)=C/Cc1c(O)cc2c(c1O)C(=O)C[C@@H](c1ccc(O)c(O)c1)O2 [NYMPHAEOL A]	Active	> 10	Non-toxic	Active	inactive	Active	–	–
CC(C)=CCCC1(C)C=Cc2c(cc3c(c2O)C(=O)C[C@@H](c2cc(O)cc(O)c2)O3)O1 (stereo partly drawn)	–	> 10	Non-toxic	–	–	–	–	–
O=C1C[C@@H](c2ccc(O)cc2)Oc2cc(O)cc(O)c21 [NARINGENIN]	–	> 10	Non-toxic	–	–	–	–	–
COc1cc([C@@H]2CC(=O)c3c(cc(O)c(C/C=C(\C)CCC=C(C)C)c3O)O2)cc(O)c1OC	Active	< 10	Non-toxic	Active	–	Active	–	–
COc1cc([C@@H]2CC(=O)c3c(O)cc(O)cc3O2)cc(OC)c1OC	–	> 10	Non-toxic	–	–	–	–	–
C/C(=C\Cc1c(O)cc2c(c1O)C(=O)C[C@@H](c1ccc(O)cc1)O2)CCC(O)C(C)(C)O (stereo partly drawn)	–	> 10	Non-toxic	–	–	–	–	–
COc1cc([C@H]2Oc3cc(O)c(C/C=C(\C)CCC=C(C)C)c(O)c3C(=O)[C@@H]2O)ccc1O	–	< 10	Non-toxic	–	–	–	Active	–
CC(C)=CCC/C(C)=C/Cc1c(O)cc2c(c1O)C(=O)C[C@@H](c1ccc(O)cc1)O2 [BONANNIONE A]	–	< 10	Non-toxic	–	–	–	–	–
COc1cc([C@@H]2CC(=O)c3c(cc(O)c(C/C=C(\C)C/C=C/C(C)(C)O)c3O)O2)ccc1O [TOMENTODIPLACONE B]	–	> 10	Non-toxic	–	–	–	Active	–
COc1cc([C@@H]2CC(=O)c3c(cc4c(c3O)CC(O)C(C)(CCC=C(C)C)O4)O2)ccc1O (stereo partly drawn)	Active	< 10	Non-toxic	Active	inactive	Active	Active	Toxic
COc1cc([C@@H]2CC(=O)c3c(cc(O)c(CC=C(C)C)c3O)O2)ccc1O	–	> 10	Non-toxic	–	–	–	–	–
COc1cc([C@@H]2CC(=O)c3c(cc(O)c(C/C=C(\C)CCC=C(C)C)c3O)O2)ccc1O	Active	< 10	Non-toxic	Active	inactive	Active	Active	–
C=C(C)C1CCC(C)(C(O)Cc2c(O)cc3c(c2O)C(=O)C[C@@H](c2ccc(O)c(OC)c2)O3)O1 (stereo partly drawn)	–	> 10	Non-toxic	–	–	–	–	–
COC(C)(C)C(O)CC/C(C)=C/Cc1c(O)cc2c(c1O)C(=O)C[C@@H](c1ccc(O)cc1)O2 (stereo partly drawn)	–	> 10	Non-toxic	–	–	–	–	–
C=C(CCC=C(C)C)C(O)Cc1c(O)cc2c(c1O)C(=O)C[C@@H](c1ccc(O)c(OC)c1)O2 (stereo partly drawn)	–	< 6.5	Non-toxic	–	–	–	–	–
O=C1C[C@@H](c2ccc(O)c(O)c2)Oc2cc(O)cc(O)c21 [ERIODICTYOL]	–	> 10	Non-toxic	–	–	–	–	–
COc1cc([C@@H]2CC(=O)c3c(cc(O)c(C/C=C(\C)CCC=C(C)C)c3O)O2)cc(OC)c1O	–	< 10	Non-toxic	–	–	–	Active	–
COc1cc([C@H]2Oc3cc4c(c(O)c3C(=O)[C@@H]2O)C=CC(C)(CCC=C(C)C)O4)ccc1O (stereo partly drawn)	–	> 10	Non-toxic	–	–	–	Active	–
COc1cc(C2CC(=O)c3c(cc(O)c(C/C=C(\C)CCC(O)C(C)(C)OC)c3O)O2)cc(OC)c1O (stereo not drawn)	–	> 10	Non-toxic	–	–	–	–	–
C=C(CCC=C(C)C)C(O)Cc1c(O)cc2c(c1O)C(=O)C[C@@H](c1ccc(O)cc1)O2 (stereo partly drawn)	Active	> 11.4	Non-toxic	Active	–	Active	Active	Toxic
COc1cc([C@@H]2CC(=O)c3c(cc(O)c(C/C=C(\C)CCC(O)C(C)(C)OC)c3O)O2)ccc1O (stereo partly drawn)	–	> 10	Non-toxic	–	–	–	–	–
COc1cc(C2CC(=O)c3c(cc(O)c(C/C=C(\C)CCC(O)C(C)(C)O)c3O)O2)cc(OC)c1O (stereo not drawn)	–	> 10	Non-toxic	–	–	–	–	–
CC(C)=CCCC(C)(O)C1Cc2c(cc3c(c2O)C(=O)CC(c2ccc(O)cc2)O3)O1 (stereo not drawn)	–	> 10	Non-toxic	–	–	–	–	–
COc1cc([C@@H]2CC(=O)c3c(cc4c(c3O)CC(C(C)(O)CCC=C(C)C)O4)O2)ccc1O (stereo partly drawn)	–	< 10	Non-toxic	–	–	–	–	–
COc1ccc([C@@H]2CC(=O)c3c(cc(O)c(C/C=C(\C)CCC=C(C)C)c3O)O2)cc1OC	–	< 10	Non-toxic	–	–	–	Active	–
